One assay concerns EGFR-MAPK signaling. Kind of assay: Western blotting in xenograft tumors that acquired resistance to erlotinib. Type of assay: in vivo, mice. The note with it: xenograft tumors with acquired resistance to EGFR inhibitor. The procedure:
(§1) Whole cell lysates were extracted using RIPA buffer (Thermo Scientific) supplemented with 10 μL/mL Halt™ Protease Inhibitor Cocktail Kit (Life Technologies) and 30 μL/mL Halt™ Phosphatase Inhibitor Cocktail Kit (Life Technologies). […] Secondary horseradish peroxidase (HRP)-conjugated antibodies were obtained from Cell Signaling Technology, and chemiluminescent detection of HRP-labeled antibodies was performed using Amersham ECL Prime Western Blotting Detection Reagent (GE Healthcare, Piscataway, USA). As loading control, β-actin was used.
For celecoxib and/or VP treatment, celecoxib (5 mg/kg) was administered via intraperitoneal (i.p.) injection once a day (17), and VP (50 mg/kg) was administered via i.p. every other day (18). […] For GEM and CDDP (GC) treatment (i.p.), CDDP (6 mg/kg) was only applied after the first GEM (60 mg/kg) treatment on day 2, followed by three consecutive treatments of GEM on day 5, 8 and 11 (17). The next cycle was started on day 18, and the treatment was continued until tumor reached 2 cm in diameter. For erlotinib treatment, the mice were treated once a day, 6 days per week, by oral gavage with erlotinib (100 mg/kg) or control (PBS containing 0.5% methyl cellulose (Sigma-Aldrich) and 0.1% TWEEN 80) (20). Tumor size was measured at least every three days. […]

The subject of another assay is YAP1. Kind of assay: YAP1 expression by western blotting. Type of assay: cell-based, human. The procedure:
(§2) Whole cell lysates were extracted using RIPA buffer (Thermo Scientific) supplemented with 10 μL/mL Halt™ Protease Inhibitor Cocktail Kit (Life Technologies) and 30 μL/mL Halt™ Phosphatase Inhibitor Cocktail Kit (Life Technologies). The protein concentrations were determined using a Pierce™ BCA Protein Assay Kit (Life Technologies), and the protein were separated on NuPAGE® 4-12% Bis-Tris Gel (Life Technologies) according to the manufacturer's protocol. COX2 (D5H5), NANOG (D73G4), OCT4 (D7O5Z), CD133 (A3G6K), Snail (C15D3), ZEB1 (D80D3), Vimentin (D21H3), CDH2 (D4R1H), CDH1 (24E10), p-EGFR (D7A5), EGFR (D38B1), p-AKT (D9E), AKT (cat #, 9272), p-ERK (D13.14.4E), ERK (137F5), p-YAP1 (D9W2I), p-Src (cat #, 2101), Src (36D10), DNMT1 (D63A6), DNMT3A (D23G1), and DNMT3B (D7O7O) antibodies were obtained from Cell Signaling Technology (Danvers, Mass., USA), except for SOX2 (EPR3131; Abcam, Cambridge, USA), YAP1 (ab52771; Abcam), CD24 (cat #, AF5247-SP; R&D Systems, Minneapolis USA) and β-actin (A2228; Sigma-Aldrich). Secondary horseradish peroxidase (HRP)-conjugated antibodies were obtained from Cell Signaling Technology, and chemiluminescent detection of HRP-labeled antibodies was performed using Amersham ECL Prime Western Blotting Detection Reagent (GE Healthcare, Piscataway, USA). As loading control, β-actin was used.

The test system of another assay is SOX2. Kind of assay: SOX2 expression by western blotting / flow cytometry. To be noted: basal-type cells. It counts as cell-based, human. As to the method:
as §2
For extracellular staining, cells (1×10^6/100 μL stain buffer) were incubated with PE-Vio770-conjugated anti-human CD133 (293C3; Miltenyi Biotec, Auburn, USA) or PE-conjugated anti-human CD24 antibody (cat #, 560991; BD Biosciences) for 30 min at 4° C. in dark. PE-Vio770-conjugated Isotype (cat #, 130-098-563; Miltenyi Biotec) and PE-conjugated IgG2a, κ Isotype (cat #, 555574; BD Biosciences) were used as control for CD133 and CD24 staining, respectively. Staining for intracellular SOX2 was carried out using the BD Cytofix/Cytoperm Fixation/Permeabilization Kit (BD Biosciences) according to manufacturer's protocol. The cells were incubated with Alexa Fluor 647-conjugated anti-SOX2 antibody (cat #, 560302; BD Biosciences) for 40 min at 4° C. in dark. Alexa Fluor 647-conjugated anti-IgG2a, κ Isotype (cat #, 558053; BD Biosciences) was used as control. Data were acquired on a BD FACSCalibur flow cytometer (BD Biosciences) using BD CellQuest Pro software (BD Biosciences) and analyzed with FlowJo software v10.1 (Tree Star, Ashland, USA).

In assay [1] the test system is AKT and extracellular signal-related kinase (ERK). Kind of assay: Western blotting of AKT and ERK activation. Type of assay: cell-based, human. The note with it: basal-type cells; 1 μM erlotinib. The procedure: as §2
In general terms: In western blotting, separated proteins are transferred to a membrane and probed.

For a further assay, the system named is urothelial CSCs. Kind of assay: Sphere formation assay (CSC properties). To be noted: basal-type cells; 1 μM erlotinib for 72 hours. Type of assay: cell-based, human. The procedure:
Sphere formation was induced by culturing cells (2×10^4/well) in DMEM/Ham's F12 50/50 Mix (Mediatech) supplemented with B-27 (Life Technologies), 20 ng/mL FGF-basic (Peprotech), 20 ng/mL EGF (Peprotech). Cell culture was performed in ultra-low attachment 6 well plates (Corning, Lowell, USA) for 10 days. The medium was replaced every other day. Sphere formation was evaluated using the inverted phase-contrast microscope, and single sphere with a diameter larger than 100 μm was counted using NIS-Elements Microscope Imaging Software. To redifferentiate spheres, spheres were plated in standard growth medium with 10% FBS in dishes supporting cell attachment, and incubated for 7 days. For self-renewal assay, primary spheres were collected by gentle centrifugation (5 min at 400×g), dissociated with Stempro Accutase Cell Dissociation Reagent (Life Technologies), and mechanically disrupted with a pipette. The cell suspension was sieved through 40 μm cell strainer cap filter to achieve a single-cell suspension, and then equal numbers of alive cells were plated in ultralow attachment plates to generate the second spheres. Again, spheres were counted on day 14 and digested to generate the third Spheres. All the experiments were performed in triplicate and repeated at least three times.

Another assay deals with COX2. The experiment in a line: COX2 expression by western blotting. It counts as cell-based, human. As to the method: as §1

Structures are written as SMILES.

On to `C#Cc1cccc(Nc2ncnc3cc(OCCOC)c(OCCOC)cc23)c1` [erlotinib, Erlotinib], for which, in the assay with EGFR-MAPK signaling, the EGFR-MAPK signaling result is reported as “remained suppressed”. Moreover, the YAP1 expression entry is on record as “continuously decreased” in the assay with YAP1 (basal-type cells) and “did not affect” with YAP1 (non-basal-type cells). Besides, the SOX2 expression result with SOX2 was “decreased at 1 hour after treatment with erlotinib and then gradually increased”. Besides, the “activation of AKT and extracellular signal-related kinase (ERK)” value in assay [1] is on record as “suppressed activation”. Also, the number of spheres result in the assay with urothelial CSCs is listed as “enriched number of spheres”. The COX2 expression entry with COX2 (basal-type cells) was “increased”; in the assay with COX2 (non-basal-type cells) it was “did not affect”.

These data come from patent US10888549B2, “Pharmaceutical agents targeting cancer stem cells” (THE JOHNS HOPKINS UNIVERSITY, priority 2016, dated 2021).
